Like-named read-outs stand apart in the source and are kept apart here.
Assays:
[1] = system: K562 (chronic myeloid leukemia); test: In vitro cytotoxicity, Calcein AM assay, K-562; assay type: cell-based; conditions: 3-day Calcein-AM assay
Summary of the method: (§1)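 About 10,000 cells per well were seeded in DMEM or RPMI with 10% FBS and left 12 h before compound addition; DMSO-only wells served as controls. After 72 h at 37 °C, 5% CO2, Calcein AM (1 μg/ml final) was added for 1 h and calcein green fluorescence taken as viable-cell signal.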

[2] = system: winter wheat leaf segments; test: Senescence bioassay: retention of chlorophyll in excised winter wheat leaf tips; assay type: in vivo, Triticum aestivum cv. Hereward; conditions: chlorophyll retention at concentration with highest activity; 10^−4 M BAP = 100%
Experimental: Seeds of winter wheat, Triticum aestivum cv. Hereward, were washed under running water for 24 hours and then sown on vermiculite soaked with Knop's solution. They were placed in a growth chamber at 25° C. with a 16/8 h light/dark period at 50 μmol·m^−2·s^−1. After 7 days, the first leaf was fully developed and the second leaf had started to grow. A tip section of the first leaf, approximately 35 mm long, was removed from 5 seedlings and trimmed slightly to a combined weight of 100 mg. The basal ends of the five leaf tips were placed in the wells of a microtiter polystyrene plate containing 150 μl of each tested compound solution. The entire plate was inserted into a plastic box lined with paper tissues soaked in distilled water to prevent leaf sections from drying out. After 96 h incubation in the dark at 25° C., the leaves were removed and chlorophyll extracted by heating at 80° C. for 10 min in 5 ml of 80% ethanol (v/v). The sample volume was then restored to 5 ml by the addition of 80% ethanol (v/v). The absorbance of the extract was recorded at 665 nm. In addition, chlorophyll extracts from fresh leaves and leaf tips incubated in deionised water were measured. […] Relative activity of the compound at this concentration was calculated (Tab. 3). The activity obtained for 10^−4 M 6-benzylaminopurine (BAP) was postulated as 100%. The values shown are means of five replicates and the whole experiment was repeated twice. The tested cytokinin bases were dissolved in dimethylsulfoxide (DMSO) and the solution brought up to 10^−3 M with distilled water. Cytokinin mesylate salts which are more water-soluble (BAP mesylate, meta-topolin mesylate and kinetin mesylate) could be directly dissolved to form a 10^−3 M solution in distilled water.

[3] = system: HL-60 (promyelocytic, leukemia); test: In vitro cytotoxicity, Calcein AM assay, HL60; assay type: cell-based; conditions: Homo sapiens, HL-60, 72 h, 3-day Calcein-AM assay
Summary of the method: as §1

[4] = Aqueous solubility: concentration of saturated solution by HPLC; assay type: physicochemical; conditions: for solubility thermodynamic: thermodynamic from solid
Experimental: Aqueous solubility was measured using the following protocol. Supersaturated solution of meta-topolin mesylate salt was prepared. The solutions were filtered off from visible undissolved particles of the salt to obtain homogenic saturated solution. Saturated solution was diluted 1:10 000 and measured using HPLC Alliance Waters 2690 with C18 Symmetry column with the diameter 2.1 mm and 150 mm length with a porosity of 5 μm. The sample was dissolved in the mobile phase (MeOH: HCOONH4-1:9). The sample was washed with a methanol gradient (10-90%, 35 min) at pH 4 and a flow rate of 0.3 ml/min. The absorbances of the components were detected in the UV region at 210-400 nm. The peak area of meta-topolin mesylate salt was 595 027. The standard was measured as shown in the Table 9 below, Obtained peak area was compared to area peaks measured at certain concentration and the final concentration of saturated solution was determined
Solubility of other cytokinin (CK) mesylates was also determined by this method and the concentrations of saturated solutions are given below in Table 10: […]

[5] = system: CEM (T-lymphoblastic leukemia); test: In vitro cytotoxicity, Calcein AM assay, CEM; assay type: cell-based; conditions: 3-day Calcein-AM assay
Summary of the method: as §1

HOS (human osteosarcoma) = test: In vitro cytotoxicity, Calcein AM assay, HOS; assay type: cell-based; conditions: Homo sapiens, 72 h, 3-day Calcein-AM assay
Source text: Because toxic compounds adversely affect cell metabolic processes, many standard cytotoxicity assays are based on measuring the rate of metabolism of various artificial substrates. The resulting product is then quantified, for example, by spectrometry. Assays can be easily modified for use in 96-well plates, A microtiter assay based on the quantification of Calcein AM metabolism was used to evaluate the cytotoxicity of cytokinins, for example meta-topolin, ortho-topolin, kinetin, BAP or its mesylate salts, but also a number of other cytokinin mesylate derivatives according to the invention. The test is widely used in drug screening programs and in chemosensitivity testing. In living cells, Calcein AM is enzymatically hydrolyzed and the accumulation of the resulting calcein is manifested by green fluorescence. […] These cells were maintained in standard DMEM or RPMI medium (Sigma, MO, USA) supplemented with heat-inactivated fetal bovine serum (10%) with 2 mM L-glutamine and penicillin-streptomycin (1%) under standard cell culture conditions (37° C., 5% CO2 in a humid environment) and subcultured two or three times a week using a standard trypsinization procedure. Approximately 10,000 cells in 80 μl of medium were seeded in a 96-well microtiter plate. After 12 hours of incubation, the compounds to be tested were added in 20 μl aliquots. Control cultures were treated with DMSO alone. […] After 72 hours of incubation, Calcein AM solution (Molecular Probes) was added to a final concentration of 1 μg/ml and the cells were incubated for another hour.
Cytoxicity of compounds was tested on panel of cell lines of different histogenetic and species origin.

[6] = system: MCF-7 (breast adenocarcinoma); test: In vitro cytotoxicity, Calcein AM assay, MCF7; assay type: cell-based; conditions: 3-day Calcein-AM assay
Summary of the method: as §1

[7] = system: cytokinin-dependent tobacco callus; test: Tobacco callus biotest (stimulation of plant cell division); assay type: cell-based, Nicotiana tabacum L. cv. Wisconsin 38; conditions: callus growth at concentration with highest activity; 10^−5 M BAP = 100%
[8] = system: Spring barley (variety Francin); test: Field trial: grain yield and productive tillers of spring barley after foliar spray; assay type: in vivo; conditions: for Length of plants / Medium tillers (number) / Number of spikes per square meter / SUM of tillers / Strong tillers (number) / Weak tillers (number) / Grain yield (t/ha) at 14% humidity / Grain yield, % compared to control / Length of plants, % compared to control / Medium tillers, % compared to control / Number of spikes per square meter, % compared to control / SUM of tillers, % compared to control / Strong tillers, % compared to control / Weak tillers, % compared to control: 5 uMol; for Length of plants / Medium tillers (number) / Number of spikes per square meter / SUM of tillers / Strong tillers (number) / Weak tillers (number) / Grain yield, % compared to control / Length of plants, % compared to control / Medium tillers, % compared to control / Number of spikes per square meter, % compared to control / SUM of tillers, % compared to control / Strong tillers, % compared to control / Weak tillers, % compared to control: application BBCH 31-33; for Grain yield (t/ha) at 14% humidity: application BBCH 31-33, spring barley; for Grain yield, % compared to control / Length of plants, % compared to control / Medium tillers, % compared to control / Number of spikes per square meter, % compared to control / SUM of tillers, % compared to control / Strong tillers, % compared to control / Weak tillers, % compared to control: untreated control = 100; for Grain yield: foliar spray 300 l/ha, BBCH 31-33
Experimental: Spring barley (variety Francin) was treated in 2019 at the locality in Olomouc, sprayed with substances—marked BAP (benzylaminopurine), meta-topolin mesylate and BAP mesylate. The seed was 3.5 million germinating seeds, the experiment was established in 5 randomized replicates for each variant, the control was an untreated variant. The experiment was performed according to the GEP (Good Experimental Practice) methodology, the size of individual plots was 10 m^2. The application of the substances was carried out at a rate of 300 l/ha, in the growth phase BBCH 31-33 (beginning of peeling).

[9] = saturated solution in water, free cytokinin base, read-out: c of free CK base
[10] = saturated solution in water, cytokinin mesylate, read-out: c of CK mesylate

solubility thermodynamic [4, 9]	SMILES	IC50 ([1]; Homo sapiens, K562, 72 h)	activity (%) [10^−4 mol · l^−1 BAP = 100%] [2]	IC50 [3]	IC50 ([5]; 72 h)	IC50 (HOS (human osteosarcoma))	IC50 ([6]; Homo sapiens, MCF7, 72 h)	activity (%) [10^−5 mol · l^−1 BAP = 100%] [7]	Length of plants [8]	Medium tillers (number) [8]	Number of spikes per square meter [8]	SUM of tillers [8]	Strong tillers (number) [8]	Weak tillers (number) [8]	Grain yield (t/ha) at 14% humidity [8]	Grain yield, % compared to control [8]	Length of plants, % compared to control [8]	Medium tillers, % compared to control [8]	Number of spikes per square meter, % compared to control [8]	Grain yield [8]	further results
210 µM	COc1cccc(CNc2ncnc3nc[nH]c23)c1 [3MeOBAP, 6-(3-methoxybenzylamino)purine]	> 167 µM	101%	> 167 µM	> 167 µM	> 167 µM	> 167 µM	76%													
	CS(=O)(=O)O.c1ccc(CNc2ncnc3nc[nH]c23)cc1 [BAP mesylate, 6-benzylaminopurine mesylate]		108%					104%	83.2 cm	1.35	758.4	6.35	2.75	2.25	7.74 t/ha	104.34%	100.48%	64.29%	112.06%	104.34 % at control	SUM of tillers, % compared to control [8]: 110.43%; Strong tillers, % compared to control [8]: 152.78%; Weak tillers, % compared to control [8]: 121.62%; IC50 ([1]; mesylate): > 167 µM; solubility thermodynamic [4, 10]: 354000 µM; IC50 ([6]; mesylate): > 167 µM
	c1ccc(CNc2ncnc3nc[nH]c23)cc1 [BAP, 6-benzylaminopurine]	139 µM	100%	> 167 µM	> 167 µM	> 167 µM	166 µM	100%	82.5 cm	1.7	752	6.6	2.8	2.1	7.42 t/ha	100.13%	99.64%	80.95%	111.11%	did not affect grain yield	SUM of tillers, % compared to control [8]: 114.78%; Strong tillers, % compared to control [8]: 155.56%; Weak tillers, % compared to control [8]: 113.51%; solubility thermodynamic ([4]; water): 370 µM
	CS(=O)(=O)O.Oc1cccc(CNc2ncnc3nc[nH]c23)c1 [mT mesylate, 6-(3-hydroxybenzylamino)purine mesylate]		109%					111%												108.03 % at control	IC50 ([1]; mesylate): 142 µM; c of CK mesylate ([4]; saturated solution in water, cytokinin mesylate): 24,011 mM; solubility thermodynamic [4, 10]: 24000 µM; concentration of saturated solution ([4]; water): approximately 24010,81 μM; solubility thermodynamic ([4]; water, read-out: concentration of saturated solution): 8000 µg/mL; IC50 ([5]; mesylate): > 167 µM
60 µM	Oc1cccc(CNc2ncnc3nc[nH]c23)c1 [meta-topolin (mT), 6-(3-hydroxybenzylamino)purine]	128 µM	117%	79.2 µM	90.1 µM	> 167 µM	> 167 µM	105%													concentration of saturated solution ([4]; water): 0.06 mg/mL
30 µM	Oc1ccccc1CNc1ncnc2nc[nH]c12 [ortho-topolin (oT), 6-(2-hydroxybenzylamino)purine]	> 167 µM	67%	78 µM	69.2 µM	> 167 µM	> 167 µM	86%													

Source: patent publication US12570657B2, “Mesylate salts of heterocyclic cytokinins, compositions containing these derivatives and use thereof” (UNIVERZITA PALACKEHO V OLOMOUCI, priority 2020, dated 2026)
